# Results from US20250326749A1, “COMPOUNDS, COMPOSITIONS, AND METHODS OF USING THEREOF” (Sionna Therapeutics Inc., priority 2022, published 2025).
# Target: T1, ΔF508-CFTR (Homo sapiens, UniProt P13569, DEL508-508)
# T1 construct: expressed in transfected cells; host or cells: CFSMEo- (human CF submucosal gland epithelial cells, ΔF508/Q2X), transiently transfected by nucleofection
# Test: ΔF508-CFTR-HRP trafficking assay (cell surface expression of ΔF508-CFTR)
# Format: cell-based
# Details: CFSMEo- cells transiently transfected with ΔF508-CFTR-HRP; test agent 3 μM, 48 h; HRP chemiluminescence
# Summary of the method: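 Surface-expressed ΔF508-CFTR measured via extracellular HRP tag: cell-impermeable chemiluminescent substrate, 5 min, signal normalized to 0.3% DMSO vehicle.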
# T1 sequence (P13569 with tags, fused parts or gaps DEL508-508): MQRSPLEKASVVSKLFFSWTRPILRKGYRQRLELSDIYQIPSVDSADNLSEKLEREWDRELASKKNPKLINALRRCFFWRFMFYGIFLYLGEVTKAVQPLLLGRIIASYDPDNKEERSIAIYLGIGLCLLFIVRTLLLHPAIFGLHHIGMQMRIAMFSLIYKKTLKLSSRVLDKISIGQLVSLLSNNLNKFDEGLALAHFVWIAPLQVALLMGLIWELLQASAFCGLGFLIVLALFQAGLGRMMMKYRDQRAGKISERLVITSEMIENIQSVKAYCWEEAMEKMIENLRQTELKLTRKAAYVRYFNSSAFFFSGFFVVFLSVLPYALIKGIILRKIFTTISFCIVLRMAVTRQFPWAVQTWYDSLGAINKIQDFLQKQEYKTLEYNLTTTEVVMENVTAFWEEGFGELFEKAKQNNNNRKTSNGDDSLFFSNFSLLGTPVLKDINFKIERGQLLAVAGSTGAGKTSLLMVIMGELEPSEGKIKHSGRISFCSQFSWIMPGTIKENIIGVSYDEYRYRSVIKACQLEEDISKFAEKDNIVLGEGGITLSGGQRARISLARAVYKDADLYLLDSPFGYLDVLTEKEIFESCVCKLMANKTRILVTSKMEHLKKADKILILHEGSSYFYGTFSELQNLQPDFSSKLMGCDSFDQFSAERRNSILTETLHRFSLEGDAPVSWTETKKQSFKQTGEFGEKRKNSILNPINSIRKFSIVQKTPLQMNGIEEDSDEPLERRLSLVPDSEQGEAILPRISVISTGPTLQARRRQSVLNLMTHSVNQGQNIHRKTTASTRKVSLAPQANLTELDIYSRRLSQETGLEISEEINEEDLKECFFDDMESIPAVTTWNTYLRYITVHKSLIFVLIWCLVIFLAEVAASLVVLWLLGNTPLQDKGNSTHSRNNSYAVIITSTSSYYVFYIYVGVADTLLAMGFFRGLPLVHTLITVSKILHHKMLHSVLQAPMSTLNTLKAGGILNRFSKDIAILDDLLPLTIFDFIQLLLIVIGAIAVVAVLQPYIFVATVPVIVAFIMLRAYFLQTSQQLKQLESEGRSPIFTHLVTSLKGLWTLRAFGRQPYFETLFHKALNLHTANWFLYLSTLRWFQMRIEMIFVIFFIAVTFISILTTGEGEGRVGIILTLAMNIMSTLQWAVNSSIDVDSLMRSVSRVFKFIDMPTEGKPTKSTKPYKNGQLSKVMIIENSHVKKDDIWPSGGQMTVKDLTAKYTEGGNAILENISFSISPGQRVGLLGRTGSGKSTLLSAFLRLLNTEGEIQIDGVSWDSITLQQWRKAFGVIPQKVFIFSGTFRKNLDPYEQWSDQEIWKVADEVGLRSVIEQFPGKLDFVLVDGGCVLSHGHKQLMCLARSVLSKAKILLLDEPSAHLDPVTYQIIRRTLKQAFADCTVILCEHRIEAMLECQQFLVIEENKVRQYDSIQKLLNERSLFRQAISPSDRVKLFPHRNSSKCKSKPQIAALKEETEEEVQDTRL
row,SMILES,RLUs: ΔF508-CFTR-HRP trafficking data normalized to the vehicle treated control (0.3% DMSO)
1,"C[C@H](Oc1cncc(-n2nc(C(F)(F)F)c3c2[C@H](O[C@H]2CC[C@H](C(=O)O)CC2)CCC3)c1)c1ccc2c(c1)OC(F)(F)O2 (single isomer, unassigned) [Example 67]",A (RLU 5.0 μM-10 μM)
2,"C[C@H](Oc1cc(-n2nc(C(F)(F)F)c3c2[C@@H](Oc2ccc(C(=O)O)cc2)CCC3)cnc1F)c1ccc2c(c1)OC(F)(F)O2 (single isomer, unassigned) [Example 68]",C (RLU 0.0 μM-3.5 μM)
3,"C[C@H](Nc1cc(-n2nc(C(F)(F)F)c3c2[C@@H](Oc2ccc(C(=O)O)cc2)CCC3)ccn1)c1ccc2c(c1)OC(F)(F)O2 (single isomer, unassigned) [Example 87]",A (RLU 5.0 μM-10 μM)
4,"CC[C@H](Nc1cc(-n2nc(C(F)(F)F)c3c2[C@@H](Oc2ccc(C(=O)O)cc2)CCC3)ccn1)c1ccc2c(c1)OC(F)(F)O2 (single isomer, unassigned) [Example 88]",C (RLU 0.0 μM-3.5 μM)
5,"CC(C)[C@H](Nc1cc(-n2nc(C(F)(F)F)c3c2[C@@H](Oc2ccc(C(=O)O)cc2)CCC3)ccn1)c1ccc2c(c1)OC(F)(F)O2 (single isomer, unassigned) [Example 89]",C (RLU 0.0 μM-3.5 μM)
6,"O=C(O)c1ccc(O[C@H]2CCCc3c(C(F)(F)F)nn(-c4ccnc(N[C@H](c5ccc6c(c5)OC(F)(F)O6)C5CC5)c4)c32)cc1 (single isomer, unassigned) [Example 90]",C (RLU 0.0 μM-3.5 μM)
7,"C[C@H](Nc1cccc(-n2nc(C(F)(F)F)c3c2[C@@H](Oc2ccc(C(=O)O)cc2)CCC3)n1)c1ccc2c(c1)OC(F)(F)O2 (single isomer, unassigned) [Example 91]",A (RLU 5.0 μM-10 μM)
8,"C[C@H](Nc1nc(-n2nc(C(F)(F)F)c3c2[C@@H](Oc2ccc(C(=O)O)cc2)CCC3)ccc1F)c1ccc2c(c1)OC(F)(F)O2 (single isomer, unassigned) [Example 92]",B (RLU 3.5 μM-5.0 μM)
9,"C[C@H](Nc1cc(-n2nc(C(F)(F)F)c3c2[C@@H](Nc2ccc(C(=O)O)cc2)CCC3)ccn1)c1ccc2c(c1)OC(F)(F)O2 (single isomer, unassigned) [Example 93]",A (RLU 5.0 μM-10 μM)
10,"C[C@H](Nc1cc(-n2nc(C(F)(F)F)c3c2[C@@H](OC24CC(C(=O)O)(C2)C4)CCC3)ccc1F)c1ccc2c(c1)OC(F)(F)O2 (single isomer, unassigned) [Example 95 (P1)]",C (RLU 0.0 μM-3.5 μM)
11,"C[C@H](Oc1cc(-n2nc(C(F)(F)F)c3c2C(O[C@H]2CC[C@H](C(=O)O)CC2)CCC3)cnc1F)c1ccc2c(c1)OC(F)(F)O2 (stereo in doubt) [79 (P2), 4-[[(7R)-1-[5-[(1S)-1-(2,2-difluoro-1,3-benzodioxol-5-yl)ethoxy]-6-fluoro-3-pyridyl]-3-(trifluoromethyl)-4,5,6,7-tetrahydroindazol-7-yl]oxy]cyclohexanecarboxylic acid]",A (RLU 5.0 μM-10 μM)
12,"C[C@H](Oc1cc(-n2nc(C(F)(F)F)c3c2C(O[C@H]2CC[C@H](C(=O)O)CC2)CCC3)cc(F)n1)c1ccc2c(c1)OC(F)(F)O2 (stereo in doubt) [80 (P2), 4-[[(7R)-1-[2-[(1S)-1-(2,2-difluoro-1,3-benzodioxol-5-yl)ethoxy]-6-fluoro-4-pyridyl]-3-(trifluoromethyl)-4,5,6,7-tetrahydroindazol-7-yl]oxy]cyclohexanecarboxylic acid]",B (RLU 3.5 μM-5.0 μM)
13,"CC(Oc1cc(-n2nc(C(F)(F)F)c3c2C(OC24CC(C(=O)O)(C2)C4)CCC3)ccn1)c1cc2c(cn1)OC(F)(F)O2 (stereo in doubt) [Example 46, 3-[[1-[2-[(1R)-1-(2,2-difluoro-[1,3]dioxolo[4,5-c]pyridine-6-yl)ethoxy]-4-pyridyl]-3-(trifluoromethyl)-4,5,6,7-tetrahydroindazol-7-yl]oxy]bicyclo[1.1.1]pentane-1-carboxylic acid]",B (RLU 3.5 μM-5.0 μM)
14,"C[C@H](Oc1cc(-n2nc(C(F)(F)F)c3c2N(Cc2ccc(C(=O)O)cc2)CCC3)ccn1)c1ccc2c(c1)OC(F)(F)O2 [Example 8, 4-[[1-[2-[(1S)-1-(2,2-difluoro-1,3-benzodioxol-5-yl)ethoxy]-4-pyridyl]-3-(trifluoromethyl)-5,6-dihydro-4H-pyrazolo[3,4-b]pyridine-7-yl]methyl]benzoic acid]",B (RLU 3.5 μM-5.0 μM)
15,"CC(Oc1cccc(-n2nc(C(F)(F)F)c3c2N(CC24CC(C(=O)O)(C2)C4)CCC3)c1)c1ccc2c(c1)OC(F)(F)O2 (centres unmarked) [Example 10, 3-[[1-[3-[1-(2,2-difluoro-1,3-benzodioxol-5-yl)ethoxy]phenyl]-3-(trifluoromethyl)-5,6-dihydro-4H-pyrazolo[3,4-b]pyridine-7-yl]methyl]bicyclo[1.1.1]pentane-1-carboxylic acid]",B (RLU 3.5 μM-5.0 μM)
16,"C[C@H](Oc1cccc(-n2nc(C(F)(F)F)c3c2N(CC24CC(C(=O)O)(C2)C4)CCC3)c1)c1ccc2c(c1)OC(F)(F)O2 [Example 11, 3-[[1-[3-[(1S)-1-(2,2-difluoro-1,3-benzodioxol-5-yl)ethoxy]phenyl]-3-(trifluoromethyl)-5,6-dihydro-4H-pyrazolo[3,4-b]pyridine-7-yl]methyl]bicyclo[1.1.1]pentane-1-carboxylic acid]",A (RLU 5.0 μM-10 μM)
17,"C[C@H](Oc1cncc(-n2nc(C(F)(F)F)c3c2N(C[C@H]2CC[C@H](C(=O)O)CC2)CCC3)c1)c1ccc2c(c1)OC(F)(F)O2 [Example 13, Trans-4-[[1-[5-[(1S)-1-(2,2-difluoro-1,3-benzodioxol-5-yl)ethoxy]-3-pyridyl]-3-(trifluoromethyl)-5,6-dihydro-4H-pyrazolo[3,4-b]pyridine-7-yl]methyl]cyclohexanecarboxylic acid]",B (RLU 3.5 μM-5.0 μM)
18,"C[C@H](Oc1cccc(-n2nc(C(F)(F)F)c3c2N(C(=O)N2CCC(C(=O)O)CC2)CCC3)c1)c1ccc2c(c1)OC(F)(F)O2 [Example 18, 1-[1-[3-[(1S)-1-(2,2-difluoro-1,3-benzodioxol-5-yl)ethoxy]phenyl]-3-(trifluoromethyl)-5,6-dihydro-4H-pyrazolo[3,4-b]pyridine-7-carbonyl]piperidine-4-carboxylic acid]",A (RLU 5.0 μM-10 μM)

# The remaining lines, values ahead:
row,RLUs: ΔF508-CFTR-HRP trafficking data normalized to the vehicle treated control (0.3% DMSO),SMILES
1,B (RLU 3.5 μM-5.0 μM),"C[C@H](Oc1cc(-n2nc(C#N)c3c2[C@@H](Oc2ccc(C(=O)O)cc2)CCC3)ccc1F)c1ccc2c(c1)OC(F)(F)O2 (single isomer, unassigned) [Example 104]"
2,A (RLU 5.0 μM-10 μM),"C[C@H](Oc1cc(-n2nc(C(F)(F)F)c3c2[C@@H](Nc2ccc(C(=O)O)cc2)CCC3)ccn1)c1ccc2c(c1)OC(F)(F)O2 (single isomer, unassigned) [Example 109]"
3,B (RLU 3.5 μM-5.0 μM),"C[C@H](Oc1cc(-n2nc(C(F)(F)F)c3c2[C@@H](Nc2ccc(C(=O)O)cc2)CCC3)ccn1)c1cc2c(cc1F)OC(F)(F)O2 (single isomer, unassigned) [Example 110]"
4,C (RLU 0.0 μM-3.5 μM),"C[C@H](Oc1cc(-n2nc(C(F)(F)F)c3c2[C@@H](Oc2ccc(-c4nc(=O)o[nH]4)cc2)CCC3)ccc1F)c1ccc2c(c1)OC(F)(F)O2 (single isomer, unassigned) [Example 111]"
5,A (RLU 5.0 μM-10 μM),"C[C@H](Oc1cc(-n2nc(C(F)(F)F)c3c2[C@@H](Oc2ccc(-c4nc(=O)o[nH]4)cc2)CCC3)ccn1)c1ccc2c(c1)OC(F)(F)O2 (single isomer, unassigned) [Example 112]"
6,C (RLU 0.0 μM-3.5 μM),"C[C@H](Oc1cc(-n2nc(C(F)(F)F)c3c2[C@H](NC(=O)C24CC(C(=O)O)(C2)C4)CCC3)ccn1)c1ccc2c(c1)OC(F)(F)O2 (single isomer, unassigned) [Example 113]"
7,C (RLU 0.0 μM-3.5 μM),"C[C@H](Oc1cc(-n2nc(C(F)(F)F)c3c2[C@@H](NC(=O)c2ccc(C(=O)O)cc2)CCC3)ccn1)c1ccc2c(c1)OC(F)(F)O2 (single isomer, unassigned) [Example 114]"
8,A (RLU 5.0 μM-10 μM),"C[C@H](Oc1cccc(-c2nn(CC(F)(F)F)c3c2[C@@H](Oc2ccc(C(=O)O)cc2)CCC3)n1)c1ccc2c(c1)OC(F)(F)O2 (single isomer, unassigned) [Example 126]"
9,A (RLU 5.0 μM-10 μM),"C[C@H](Nc1cc(-c2nn(C3COC3)c3c2[C@@H](Oc2ccc(C(=O)O)cc2)CCC3)ccn1)c1ccc2c(c1)OC(F)(F)O2 (single isomer, unassigned) [Example 127]"
10,B (RLU 3.5 μM-5.0 μM),"CC(C)n1nc(-c2ccnc(N[C@@H](C)c3ccc4c(c3)OC(F)(F)O4)c2)c2c1CCC[C@@H]2Oc1ccc(C(=O)O)cc1 (single isomer, unassigned) [Example 128]"
11,B (RLU 3.5 μM-5.0 μM),"C[C@H](Nc1cc(-c2nn(CC(F)(F)F)c3c2[C@@H](Oc2ccc(C(=O)O)cc2)CCC3)ccn1)c1ccc2c(c1)OC(F)(F)O2 (single isomer, unassigned) [Example 129]"
